# Reference: ChEMBL document CHEMBL3576760, “Modification of amphipathic non-opioid dynorphin A analogues for rat brain bradykinin receptors” (Bioorg Med Chem Lett, 2015)
# Calls of active or inactive are those of the source. The calls are words filed in the database; no cut-off is given here. Non-standard residues stand in square brackets, D forms with d. Residues, ends and D or L forms follow the SMILES beside them. ξ: configuration not given here. Phe(4-NH2) = Nc1ccc(C[C@H](N)C(=O)O)cc1; dNle = CCCC[C@@H](N)C(=O)O; ξNle = CCCCC(N)C(=O)O
# Key:
# [1] = Retention time of the compound by HPLC analysis; format: physicochemical
# [2] = (§1) Displacement of [3H]DALKD from bradykinin receptor in rat brain membrane at pH 6.8 by competition assay; format: cell membranes
# Rattus norvegicus = species: Rattus norvegicus; assay: as §1; format: cell membranes
# [3] = Displacement of [3H]DALKD from bradykinin receptor in rat brain membrane at pH 7.4 by competition assay; format: cell membranes
Retention_time [1] [min],pIC50 [2],IC50 ([2]; read-out: IC50) [nM],pIC50 (Rattus norvegicus),IC50 [2],IC50 [3] [nM],pIC50 [3],Structure (SMILES)
14.5,7.3,50,,,,,CC[C@H](C)[C@H](NC(=O)[C@H](CCCNC(=N)N)NC(=O)[C@@H]1CCCN1C(=O)[C@@H](N)CCCCN)C(=O)N[C@@H](CCCNC(=N)N)C(=O)N[C@@H](CC(C)C)C(=O)N[C@@H](Cc1ccccc1)C(=O)O (H-KPRIRLF-OH)
11.1,,,inactive,Not Active,,,CCCC[C@@H](NC(=O)[C@H](N)Cc1ccccc1)C(=O)N[C@H](CCCNC(=N)N)C(=O)N[C@H](CCCC)C(=O)N[C@H](CCCNC(=N)N)C(=O)N1CCC[C@@H]1C(=O)N[C@H](CCCCN)C(=O)O (H-[dF][dNle][dR][dNle][dR][dP][dK]-OH)
,7.11,78,,,,,CCCCC(N)C(=O)N[C@@H](CCCCN)C(=O)N1CCC[C@H]1C(=O)N[C@@H](CCCCN)C(=O)NC(CCCC)C(=O)N[C@@H](CCCCN)C(=O)O (some centres not stated) (H-[ξNle]KPK[ξNle]K-OH)
,7.06,87,,,,,CCCCC(NC(=O)[C@H](CCCNC(=N)N)NC(=O)C(CCCC)NC(=O)[C@@H](N)Cc1ccccc1)C(=O)N[C@@H](CCCNC(=N)N)C(=O)N1CCC[C@H]1C(=O)N[C@@H](CCCNC(=N)N)C(=O)O (some centres not stated) (H-F[ξNle]R[ξNle]RPR-OH)
10.2,7.08,83,,,,,CC[C@H](C)[C@H](NC(=O)[C@H](CCCNC(=N)N)NC(=O)[C@@H](N)Cc1ccccc1)C(=O)N[C@@H](CCCNC(=N)N)C(=O)N1CCC[C@H]1C(=O)N[C@@H](CCCCN)C(=O)N[C@@H](CC(C)C)C(=O)N[C@@H](CCCCN)C(=O)O (H-FRIRPKLK-OH)
,6.68,210,,,,,CC(C)C[C@H](NC(=O)[C@H](CCCCN)NC(=O)[C@@H]1CCCN1)C(=O)N[C@@H](CCCCN)C(=O)O (H-PKLK-OH)
10.8,,,,,350,6.46,CC(C)C[C@H](NC(=O)[C@H](CCCCN)NC(=O)[C@@H](N)Cc1ccccc1)C(=O)N[C@@H](CCCCN)C(=O)O (H-FKLK-OH)
7.5,,,,,71,7.15,CCCCC(NC(=O)[C@H](CCCCN)NC(=O)[C@@H]1CCCN1)C(=O)N[C@@H](CCCCN)C(=O)O (some centres not stated) (H-PK[ξNle]K-OH)
12.1,6.82,150,,,,,CC[C@H](C)[C@H](NC(=O)[C@H](CCCNC(=N)N)NC(=O)[C@@H]1CCCN1C(=O)[C@H](CCCCN)NC(=O)[C@H](CC(C)C)NC(=O)[C@@H](N)CCCCN)C(=O)N[C@@H](CCCNC(=N)N)C(=O)N[C@@H](CC(C)C)C(=O)N[C@@H](Cc1ccccc1)C(=O)NCC(=O)NCC(=O)O (H-KLKPRIRLFGG-OH)
11.4,5.28,5200,,,,,CC[C@H](C)[C@H](NC(=O)[C@H](CCCNC(=N)N)NC(=O)[C@H](CCCNC(=N)N)NC(=O)[C@H](CC(C)C)NC(=O)[C@@H](N)Cc1ccccc1)C(=O)N[C@@H](CCCNC(=N)N)C(=O)N1CCC[C@H]1C(=O)N[C@@H](CCCCN)C(=O)N[C@@H](CC(C)C)C(=O)O (H-FLRRIRPKL-OH)
10.8,7,100,,,,,CC(C)C[C@H](NC(=O)[C@H](CCCNC(=N)N)NC(=O)[C@H](CC(C)C)NC(=O)[C@@H](N)Cc1ccccc1)C(=O)N[C@@H](CCCNC(=N)N)C(=O)N1CCC[C@H]1C(=O)N[C@@H](CCCNC(=N)N)C(=O)O (H-FLRLRPR-OH)
7.2,,,,,450,6.35,CC(C)C[C@H](NC(=O)[C@H](CCCCN)NC(=O)[C@@H](N)Cc1ccc(N)cc1)C(=O)N[C@@H](CCCCN)C(=O)O (H-[Phe(4-NH2)]KLK-OH)
11.6,7.11,78,,,,,CC[C@H](C)[C@H](NC(=O)[C@H](CCCNC(=N)N)NC(=O)[C@@H]1CCCN1C(=O)[C@H](CCCCN)NC(=O)[C@H](CC(C)C)NC(=O)[C@@H](N)CCCCN)C(=O)N[C@@H](CCCNC(=N)N)C(=O)N[C@@H](CCCNC(=N)N)C(=O)N[C@@H](CC(C)C)C(=O)N[C@@H](Cc1ccccc1)C(=O)NCC(=O)NCC(=O)O (H-KLKPRIRRLFGG-OH)
10.1,,,,,2300,5.63,CC[C@H](C)[C@H](NC(=O)[C@H](CCCNC(=N)N)NC(=O)[C@H](CCCNC(=N)N)NC(=O)[C@H](CC(C)C)NC(=O)[C@H](Cc1ccccc1)NC(=O)CN)C(=O)O (H-GFLRRI-OH)
6.8,7.31,49,,,,,CC[C@H](C)[C@H](N)C(=O)N[C@@H](CCCNC(=N)N)C(=O)N1CCC[C@H]1C(=O)N[C@@H](CCCCN)C(=O)N[C@@H](CC(C)C)C(=O)N[C@@H](CCCCN)C(=O)O (H-IRPKLK-OH)
9.9,6.03,930,,,,,CC[C@H](C)[C@H](NC(=O)[C@H](CCCNC(=N)N)NC(=O)[C@@H]1CCCN1C(=O)[C@@H](N)CCCCN)C(=O)N[C@@H](CCCNC(=N)N)C(=O)N[C@@H](CC(C)C)C(=O)O (H-KPRIRL-OH)
9.9,6.96,110,,,,,CC[C@H](C)[C@H](NC(=O)[C@H](CCCNC(=N)N)NC(=O)[C@@H](NC(=O)[C@@H](N)Cc1ccccc1)[C@@H](C)CC)C(=O)N[C@@H](CCCNC(=N)N)C(=O)N1CCC[C@H]1C(=O)N[C@@H](CCCNC(=N)N)C(=O)O (H-FIRIRPR-OH)
7.9,6.34,460,,,,,CCCCC(N)C(=O)N[C@@H](CCCCN)C(=O)N[C@H](C(=O)N[C@@H](CCCCN)C(=O)N1CCC[C@H]1C(=O)N[C@@H](CCCCN)C(=O)O)[C@@H](C)CC (some centres not stated) (H-[ξNle]KIKPK-OH)
8.7,,,,,950,6.02,CC(C)C[C@H](NC(=O)[C@H](Cc1ccccc1)NC(=O)CN)C(=O)N[C@@H](CCCNC(=N)N)C(=O)O (H-GFLR-OH)
9.2,,,,,4800,5.32,CC[C@H](C)[C@H](NC(=O)[C@H](CCCNC(=N)N)NC(=O)[C@H](CCCNC(=N)N)NC(=O)[C@H](CC(C)C)NC(=O)[C@@H](N)Cc1ccccc1)C(=O)O (H-FLRRI-OH)
8.3,7.19,65,,,,,CC[C@H](C)[C@H](NC(=O)[C@@H](N)CCCNC(=N)N)C(=O)N[C@@H](CCCNC(=N)N)C(=O)N1CCC[C@H]1C(=O)N[C@@H](CCCCN)C(=O)N[C@@H](CC(C)C)C(=O)N[C@@H](CCCCN)C(=O)O (H-RIRPKLK-OH)
9.9,5.2,6300,,,,,CC[C@H](C)[C@H](NC(=O)[C@H](CCCNC(=N)N)NC(=O)[C@@H]1CCCN1C(=O)[C@H](CCCCN)NC(=O)[C@H](CC(C)C)NC(=O)[C@@H](N)CCCCN)C(=O)O (H-KLKPRI-OH)
,7.39,41,,,,,CC[C@H](C)[C@H](NC(=O)[C@H](CCCNC(=N)N)NC(=O)[C@H](CC(C)C)NC(=O)[C@H](Cc1ccccc1)NC(=O)CNC(=O)CN)C(=O)N[C@@H](CCCNC(=N)N)C(=O)N1CCC[C@H]1C(=O)N[C@@H](CCCCN)C(=O)N[C@@H](CC(C)C)C(=O)N[C@@H](CCCCN)C(=O)O (H-GGFLRIRPKLK-OH)
8.2,7.08,83,,,,,CCCCC(N)C(=O)N[C@@H](CCCNC(=N)N)C(=O)N1CCC[C@H]1C(=O)N[C@@H](CCCNC(=N)N)C(=O)NC(CCCC)C(=O)N[C@@H](CCCCN)C(=O)O (some centres not stated) (H-[ξNle]RPR[ξNle]K-OH)
12.6,7.03,93,,,,,CC[C@H](C)[C@H](NC(=O)[C@H](CCCNC(=N)N)NC(=O)[C@@H]1CCCN1C(=O)[C@H](CCCCN)NC(=O)[C@H](CC(C)C)NC(=O)[C@@H](N)CC(C)C)C(=O)N[C@@H](CCCNC(=N)N)C(=O)N[C@@H](CCCNC(=N)N)C(=O)N[C@@H](CC(C)C)C(=O)N[C@@H](Cc1ccccc1)C(=O)NCC(=O)NCC(=O)O (H-LLKPRIRRLFGG-OH)
9.9,,,,,110,6.94,CCCCC(N)C(=O)N[C@@H](CCCCN)C(=O)NC(CCCC)C(=O)N[C@@H](CCCCN)C(=O)O (some centres not stated) (H-[ξNle]K[ξNle]K-OH)

Structure (SMILES),Retention_time [1] [min],pIC50 [2],IC50 ([2]; read-out: IC50) [nM],pIC50 (Rattus norvegicus),IC50 [2],IC50 [3] [nM],pIC50 [3]
CC(C)C[C@H](NC(=O)[C@H](CCCCN)NC(=O)[C@@H]1CCCN1C(=O)[C@@H](N)CCCNC(=N)N)C(=O)N[C@@H](CCCCN)C(=O)O,6,7.24,58,,,,
